Assays:
[1] = test system: postoperative pain model in rat; experiment: Postoperative pain model in rat, mechanical hyperalgesia test; format: in vivo; settings: 10 mg/kg intramuscular injection
Protocol: Injection of compound I-1: 36.13 mg of compound I-1 prepared in Example 2 was weighed and added into 3.140 mL of normal saline, and well mixed by vortex;
The solvent of the test compound I-1 was normal saline, the administration dose was 10 mg/kg, and the administration method was intramuscular injection. 36.13 mg of the compound I-1 was weighed and added into 3.140 mL normal saline, and well mixed by vortex. The reference compound used in the experiment was bupivacaine injection, purchased from Shanghai Zhaohui Pharmaceutical Co., Ltd., in a dose of 10 mg/kg via intramuscular injection.
Aseptic operation was performed during surgery, surgical instruments (scissors, forceps, scalpel, surgical cotton, suture thread) were disinfected before the operation. The rats were anesthetized with sodium pentobarbital (50 mg/kg, intraperitoneal injection), and the toes of the rats were squeezed to confirm that the animals were completely anesthetized before the surgery. Ophthalmic ointment was applied to the animal's eyes to prevent the animal's cornea from drying out. Iodophor and 70% ethanol were used to disinfect the skin of the surgery area on the sole of the left hind foot three times, and the surgery was started after the skin was dried. Starting at 0.5 cm from the heel, a 1 cm long incision was made longitudinally toward the toe. After cutting the skin, the flexor digitorum brevis was lifted to make longitudinal blunt injury. After pressing to stop the bleeding, the wound was sutured. The surgical instruments were cleaned and sterilized with hot bead sterilizer. After the surgery, the animals were placed on an electric blanket and injected subcutaneously with 5 mL normal saline to prevent dehydration. When the animal was completely awake (free to move), put the animal back into the cage. […]
The rat was placed alone in a plexiglass box with a grid on the bottom of the box to ensure that the rat's feet can be tested. […] During the test, the animal's rapid foot shrinkage was recorded as a pain response. The animal's foot shrinkage when the test fiber left the animal's skin was also recorded as a pain response. If the animal moved or walked, it would not be recorded as the pain response, the test should be repeated. […] The mechanical hyperalgesia test results are recorded in the table of FIG. 10, in which pain response is indicated with an “x” and no pain response is indicated with an “o.”
Mechanical hyperalgesia was expressed as the paw withdrawal threshold (PWT) in the behavioral test of rats, which was calculated according to the following equation: 50% response threshold (g)=(10(Xf+k))/10,000 • Xf=the final test fiber value used in the test • K=table value (Chaplan et al. 1994, page 62) • □=Average difference 5. […]

[2] = test system: formalin pain model in mice; experiment: Formalin pain model in mice; format: in vivo, C57BL/6 mice; settings: Mus musculus, ip; intraperitoneal, phase II (10-60 min), dose that halves licking time vs blank control; read-out: analgesic potency ED50 in phase II pain
Description: 150 C57BL/6 mice (male, 9 weeks) were randomly divided into 15 groups with 10 mice for each group, and were used for the analgesic activity test of 3 compounds in the formalin pain model in mice: the compound I-1 group (compound I-1 prepared in Example 2, its hydrochloride was used in the experiment), the S-duloxetine group (its hydrochloride was used in the experiment) and the compound C1 group (compound C1 prepared in Comparative Example 1, its hydrochloride was used in the experiment), respectively. Before the start of the experiment, the mice were allowed to adapt to the experimental environment for 72 hours, during which there was no need to fast for food or water. The tested drugs were administrated by intraperitoneal injection, and the doses were as follows: • The compound I-1 group: blank Vehicle (blank normal saline control), 0.1 mg/kg, 0.5 mg/kg, 1 mg/kg, 5 mg/kg and 10 mg/kg; • The S-duloxetine group: blank Vehicle (blank normal saline control), 1 mg/kg, 5 mg/kg, 10 mg/kg and 20 mg/kg; • The Compound C1 group: blank Vehicle (blank normal saline control), 0.1 mg/kg, 0.5 mg/kg, 1 mg/kg, 5 mg/kg and 10 mg/kg.
After the administration, the mice were placed in a transparent, ventilated plexiglass cylinder, and 1 hour later, 20 μl of 4% formalin solution was injected into the left hind foot plantar of each group of mice with a micro-injector, and foot pain response in mice were recorded in real time with a miniature camera. The length of time of licking the left foot was used as an indicator of pain response, the licking time were observed and recorded during two periods of 0-10 min (phase I) and 10-60 min (phase II) respectively, for statistical analysis, and the half effective dose (ED50) of the 3 compounds were calculated: ED50 refers to the drug dose that reduces the licking time by half compared with the blank control group. The smaller the ED50 value is, the lower the effective analgesic dose of the compound is and the better its analgesic effect is.

[3] = test system: hot plate induced pain model in rat; experiment: Hot plate induced pain model in rat; format: in vivo, Sprague-Dawley rats; settings: 100 mg/kg intraperitoneal
Protocol: Male, mature and unmated healthy Sprague-Dawley rats were selected, and the temperature of the cold/hot plate (product model: PE34, US IITC) was adjusted to a constant temperature of 53±0.1° C., and rats with painful response such as foot licking, foot shaking or slight jumping within 5-10 s were screened (abandoned those who evaded and jumped). […] The tested compound was freshly formulated on the day of administration. A 0.9% NaCl normal saline solution was prepared as a vehicle, an appropriate amount of the test compound was added to the required volume of normal saline, and the mixture was fully suspended to prepare the drug at a concentration of 1 mg/ml. […] The latency of thermal pain was measured at 0.5 h, 1 h and 2 h after drug administration. To avoid scalding the animals on the hot plate, the maximum latency was set to 30 s. The analgesic effect of each compound was evaluated using the maximum possible effect (MPE), i.e. MPE %=[(Post drug latency-baseline latency)/(30−baseline latency)]×100. Statistics of MPE % at different time points.

SNL model in rat = experiment: SNL model in rat, mechanical hyperalgesia test; format: in vivo, SD rats; settings: 100 mg/kg intragastric, 1 hour after administration; control group 3.967 ± 0.775
Protocol: SD rats were taken for surgery, male, SPF grade, mass 150 g-180 g. The surgical procedure was performed aseptically. The animals were anesthetized with sodium pentobarbital (50 mg/kg, intraperitoneal injection). The surgical area of the waist of animals was shaved, and the skin was disinfected three times with iodophor and 70% ethanol. Start the operation after the skin was dry. A longitudinal incision was made in the posterior part of the sacral bone of the animal's waist with a scalpel to expose the left paravertebral muscles, and the muscle tissue was separated with a distractor to expose the vertebra. The left spinal nerves L5 and L6 were separated, ligated with 6-0 silk thread, and the wounds were sutured. After the surgery, the animals were placed on an electric blanket and injected subcutaneously with 5 mL normal saline to prevent dehydration. When the animal was completely awake (free to move), put the animal back into the cage.
After the surgery, the animals were adapted in the experimental environment for 15 minutes/day for 3 days.
After administration, mechanical hyperalgesia test was performed. The rats were placed individually in a plexiglas box with a grid at the bottom of the box to ensure that the feet of the rats can be tested. Rats would adapt for 15 minutes before the test. […] The rapid paw withdrawal of the animal during the test was recorded as a pain response. The paw withdrawal of the animal when the test fiber left the animal's skin was also recorded as a pain response. If the animal moved or walked, it will not be recorded as a pain response, the test should be repeated. […]
Mechanical hyperalgesia was expressed as the paw withdrawal threshold (PWT) in the behavioral test of rats, which was calculated according to the following equation: 50% response threshold (g)=(10(^Xf+kδ))/10,000 • Xf=the final test fiber value used in the test • K=table value • δ=Average difference
Data were collected using Excel software and analyzed using Prism 6.01 (Graph pad software, Inc.) software.

TRPA1 = molecular target: T1, TRPA1 (Mus musculus, UniProt Q8BLA8); experiment: TRPA1 inhibitory activity, IonWorks Barracuda (IWB) automatic patch clamp detection; format: cell-based; settings: HEK293 cells stably expressing TRPA1, AITC-induced current; read-out: IC50(μM) against TRPA1 in automatic patch clamp detection
T1 construct: expressed in transfected cells; host or cells: HEK293 cells stably expressing TRPA1
Protocol: In this example, the compounds prepared in some examples of the present invention (shown in Table 1) were tested for their inhibitory activity on the transient receptor potential channel protein TRPA1. Wherein, compound of formula A (WO2010075353) was used as positive control: […]
Test method by using IonWorks Barracuda (IWB) automatic patch clamp detection: HEK293 cells stably expressing TRPA1 were placed in a 37° C., 5% CO2 incubator and incubated with DMEM medium containing 15 μg/mL Blasticidin S HCl, 200 μg/mL Hygromycin B and 10% FBS serum in a T175 culture flask. When the cell density grew to […], the culture medium was removed, the cells were washed with calcium and magnesium free phosphate buffered saline (PBS), and 3 mL of Trypsin was added and digested for 2 minutes, and 7 mL of culture medium was added to terminate the digestion. […]
Data recording and current amplitude measurement and export were completed by IWB Software (version 2.5.3, Molecular Devices Corporation, Union City, CA). The statistics of the well with a sealing impedance lower than 20 M Ω were not recorded. The original current data was corrected by software, the TRPA1 current amplitude was measured in +100 mV. […] The dose-effect curve and IC50 of compounds were fitted and calculated by GraphPad Prism 5.02 (GraphPad Software, San Diego, CA).

[4] = test system: acetic acid writhing pain model in mice; experiment: Acetic acid writhing pain model in mice; format: in vivo, ICR mice; settings: 10 mg/kg intragastric, acetic acid 1 hour after administration; normal saline group 49 times
Protocol: ICR mice, male, 22-25 g, were fasted for food 2 h before administration, but can have water. All ICR mice were weighed and randomly grouped with the number of animals>10 per group. […] The mice were administered via intragastric administration according to the weight of mice. 1.5% acetic acid solution (0.1 ml/10 g) was intraperitoneally injected at 1 hour after administration, and the number of times of visceral pain in each group within 30 minutes was observed, the mice were counted once when the abdomen was concave, the trunk and hind legs were extended and the hips were elevated, and the number of times of these phenomena occurred within 30 min was finally counted.

T1 sequence (Q8BLA8 whole entry): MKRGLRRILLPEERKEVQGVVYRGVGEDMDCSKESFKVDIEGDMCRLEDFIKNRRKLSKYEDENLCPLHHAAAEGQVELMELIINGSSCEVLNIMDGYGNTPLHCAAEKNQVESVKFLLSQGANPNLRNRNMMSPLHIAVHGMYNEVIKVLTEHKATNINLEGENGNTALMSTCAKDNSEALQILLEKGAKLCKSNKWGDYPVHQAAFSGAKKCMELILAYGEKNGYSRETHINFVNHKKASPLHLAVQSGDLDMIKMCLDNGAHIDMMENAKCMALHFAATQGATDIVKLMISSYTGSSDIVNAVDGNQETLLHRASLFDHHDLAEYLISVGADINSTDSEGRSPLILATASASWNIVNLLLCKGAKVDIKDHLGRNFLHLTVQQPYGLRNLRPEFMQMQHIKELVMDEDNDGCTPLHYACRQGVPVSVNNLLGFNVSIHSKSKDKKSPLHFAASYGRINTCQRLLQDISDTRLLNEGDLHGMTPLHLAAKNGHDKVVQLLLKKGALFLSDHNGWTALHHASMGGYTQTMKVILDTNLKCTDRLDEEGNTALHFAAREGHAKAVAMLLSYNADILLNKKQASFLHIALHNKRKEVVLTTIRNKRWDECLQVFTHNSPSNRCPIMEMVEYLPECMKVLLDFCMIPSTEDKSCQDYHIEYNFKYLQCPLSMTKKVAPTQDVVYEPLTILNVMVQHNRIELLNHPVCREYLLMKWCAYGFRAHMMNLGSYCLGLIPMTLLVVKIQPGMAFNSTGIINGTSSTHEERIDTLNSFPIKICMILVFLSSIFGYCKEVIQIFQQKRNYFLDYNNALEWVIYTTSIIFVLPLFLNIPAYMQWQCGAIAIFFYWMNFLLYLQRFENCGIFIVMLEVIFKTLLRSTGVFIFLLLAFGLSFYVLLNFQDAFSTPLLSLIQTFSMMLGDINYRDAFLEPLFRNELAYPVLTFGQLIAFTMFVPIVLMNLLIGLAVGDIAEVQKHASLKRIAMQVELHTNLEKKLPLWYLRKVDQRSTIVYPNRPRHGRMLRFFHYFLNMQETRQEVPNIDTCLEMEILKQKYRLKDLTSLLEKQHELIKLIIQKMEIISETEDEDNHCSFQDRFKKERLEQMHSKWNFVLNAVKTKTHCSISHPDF

For CCCCN1CCCCC1C(=O)Nc1c(C)cccc1C (stereo not drawn) [Bupivacaine, bupivacaine], the “PWT” value ([1]; 1 hour after administration, Normal Saline 3.561) was 11.587 g and the “PWT” value ([1]; 2 hours after administration, Normal Saline 3.382) was 4.448 g.

For CNCC[C@H](Oc1cccc2ccoc12)c1cccs1 [Compound C1, (S)-3-(benzofuran-7-yloxy)-N-methyl-3-(thiophen-2-yl)propan-1-amine], the ED50 [2] was 2.22 mg/kg.

NCC1(CC(=O)O)CCCCC1 [Gabapentin, gabapentin] was tested, and the MPE % ([3]; 0.5 h) was 6.47 ± 5.49%, the MPE % ([3]; 1 h) was 14.56 ± 6.18% and the MPE % ([3]; 2 h) was 22.66 ± 4.93%. The “PWT” value (SNL model in rat) was 6.352 ± 1.897 g.

In the case of CNCC[C@@H](Oc1cccc2ccccc12)c1cccs1 [R-Duloxetine, R-duloxetine], the IC50 (TRPA1) is reported as 21 to 50 µM.

CN1[C@H]2C[C@H](OC(=O)[C@H](CO)c3ccccc3)C[C@@H]1[C@@H](O)C2 [anisodamine, Anisodamine] was tested, and the “number of visceral pains (writhing reactions) within 30 min” value [4] was 27 times.
